Measured values from patent publication US10758522B2, “Small molecule analogs of the nemo binding peptide” (THE SCRIPPS RESEARCH INSTITUTE, priority 2015, dated 2020).

Key:
[1] = system: embryonic fibroblasts from Ercc1−/− mice; test: Senescence rescue assay in ERCC1-deficient murine embryonic fibroblasts (SA-ß-gal); assay type: cell-based, mouse; conditions: oxidative stress conditions (20% O2)
From the text: In an attempt to identify new drugs able to improve healthspan, we have developed an assay for screening for drugs able to rescue primary “aged” fibroblasts from senescence. This assay uses murine embryonic fibroblasts (MEFs) from mice with accelerated aging due to a deficiency in an important DNA repair pathway, ERCC1-XPF. These MEFs undergo rapid senescence in culture, especially when grown under the high oxygen conditions that confers oxidative stress (FIGS. 18 and 19).

[2] = system: K14-Cre+/−; Ercc1−/fl; Skh1−/− mice; test: Naked mouse skin photoaging study, topical treatment; assay type: in vivo
Experimental: Naked mice of strain K14-Cre^+/−; Ercc1^−/fl; Skh1^−/− were treated with SR12343 versus vehicle control, then exposed to UV light for […]. The NBD mimetic SR12343 and SR2460 were tested for their ability to reduce the effects of photoaging in a mouse model. To make analysis of skin aging easier, usually hairless mice are utilized. Previously studies have shown that exposure of the hairless Skh1^−/− mouse to UV results in skin aging over 5 months as measured by skin thickness, elastosis, collagen damage, synthesis and degradation, increased ratio of collagen III to I, increased GAGs, and wrinkles and sagging. To accelerate this photoaging process, we generated a mouse model where Ercc1-dependent DNA repair activity is eliminated in K14 expressing skin cells in the Skh1^−/− mice (K14-Cre^+/−; Ercc1^−/fl; Skh1^−/− mice). In these mice, chronic UV exposure gives rise to evidence of photoaging 6 times faster than in the Skh1^−/− mice, allowing for analysis of skin aging in 2-4 weeks (FIGS. 51 (A, B, and C).
For testing of drugs for effects on photoargng in the K14-Cre^+/−; Ercc1^−/fl; Skh1^−/− mice, the mice are first tattooed to outlined quadrants for drug treatment. The mice were then exposed to UV 3× (total of 1 kJ/m^2/wk) for 4 weeks in a tanning booth. This dose regiment is the equivalent of one year of sun exposure.
A 50 mg/ml solution of SR12343 was then prepared in a DMSO gel for topical application. The SR12343 gel was administered topically 5 times per week and mice exposed to UV 3× per week as indicated. It is important to note that the compound was administered following UV dosing to eliminate any anti-UV effects of the drug. At the midway point and at the end of the experiment, the mice were analyzed using a TEWL Meter for skin thickness, elasticity and hydration. At the time of sacrifice, skin sections are taken for analysis of the extent of cellular senescence by RT-PCR.

| SMILES | senescence (SA-ß-gal staining) of ERCC1-deficient MEFs [1] | overall appearance of the skin, wrinkles ([2]; 50 mg/ml in DMSO gel, topical 5 times per week, UV 3× per week) | skin elasticity ([2]; topical gel, UV-exposed) | skin hydration ([2]; topical gel, UV-exposed) | expression of senescent marker p16 in skin ([2]; topical gel, UV-exposed, RT-PCR) | molecular markers of skin aging and appearance of the skin ([2]; topical treatment) |
| --- | --- | --- | --- | --- | --- | --- |
| Nc1ncccc1C(=O)OCC(=O)Nc1ccc(Cl)cc1F [NBDA-1, 2-((4-chloro-2-fluorophenyl)amino)-2-oxoethyl 2-aminonicotinate] | reduced senescence |  |  |  |  |  |
| O=C(CNc1ccc(Cl)cn1)NCCc1cccc(Br)c1 [SR12343, N-(3-bromophenethyl)-2-((5-chloropyridin-2-yl)amino)acetamide] |  | reducing the number and depth of the wrinkles | restores skin elasticity | improved skin hydration | lowered the expression of senescent markers such as p16 | improved molecular markers of skin aging as well as the overall appearance of the skin |
